According to PubChem BioAssay (NCI):
Where “and” joins values, the source holds several entries; their conditions need not be identical. Equal values may be shown once.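 Five concentrations, 48 hours, 96-well plates. GI50 marks 50% less growth. TGI is the concentration that stops growth completely.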

Key:
Assay in all cases: inhibition of tumour cell growth, NCI panel, 48 h
HOP-62 NSCLC = system: HOP-62 NSCLC
T-47D breast = system: T-47D breast
HL-60(TB) leukemia = system: HL-60(TB) leukemia
CAKI-1 renal = system: CAKI-1 renal
IGROV1 ovarian = system: IGROV1 ovarian
786-0 renal = system: 786-0 renal
EKVX NSCLC = system: EKVX NSCLC
MCF7 breast = system: MCF7 breast
HCT-15 colon = system: HCT-15 colon
SK-MEL-2 melanoma = system: SK-MEL-2 melanoma

## O=C(CCN1CCCC1)Nc1ccc2c(Nc3ccccc3)c3ccccc3nc2c1
HOP-62 NSCLC
  GI50: 0.404 µM
  TGI: 2.51 µM
T-47D breast
  GI50: 0.399 µM
  TGI: 2.76 µM
HL-60(TB) leukemia
  GI50: 0.264 µM
  TGI: 1.61 µM
CAKI-1 renal
  GI50: 0.397 µM
  TGI: 2.08 µM
IGROV1 ovarian
  GI50: 0.474 µM
  TGI: 3.02 µM
786-0 renal
  GI50: 0.467 µM
  TGI: 1.93 µM
EKVX NSCLC
  GI50: 1.41 µM
  TGI: 4.23 µM
MCF7 breast
  GI50: 0.0221 µM
  TGI: 1.77 µM
HCT-15 colon
  GI50: 0.367 µM
  TGI: 2.36 µM
SK-MEL-2 melanoma
  GI50: 1.69 µM
  TGI: 3.56 µM

## Cn1cc(CO)c2ccccc21
HOP-62 NSCLC
  GI50: 73.8 µM
  TGI: > 100 µM
T-47D breast
  GI50: 62.1 µM
  TGI: > 100 µM
HL-60(TB) leukemia
  GI50: 32.5 µM
  TGI: > 100 µM
CAKI-1 renal
  GI50: 18.3 µM
  TGI: > 100 µM
IGROV1 ovarian
  GI50: 10.9 µM
  TGI: > 100 µM
786-0 renal
  GI50: > 100 µM
  TGI: > 100 µM
EKVX NSCLC
  GI50: 50.7 µM
  TGI: > 100 µM
MCF7 breast
  GI50: 26.9 µM
  TGI: > 100 µM
HCT-15 colon
  GI50: 22.4 µM
  TGI: > 100 µM
SK-MEL-2 melanoma
  GI50: 36.2 µM
  TGI: > 100 µM

## C1=C2CNCC3=Cc4ccc5ccccc5c4OC23Oc2c1ccc1ccccc21
HOP-62 NSCLC
  GI50: 4.47 µM
  TGI: 16.7 µM
T-47D breast
  GI50: 8.28 µM
  TGI: 23.2 µM
HL-60(TB) leukemia
  GI50: 2.69 µM
  TGI: 7.68 µM
CAKI-1 renal
  GI50: 3.29 µM
  TGI: 20.7 µM
IGROV1 ovarian
  GI50: 9.59 µM
  TGI: 28.7 µM
786-0 renal
  GI50: 5.1 µM
  TGI: 31.5 µM
EKVX NSCLC
  GI50: 5.81 µM
  TGI: 34.1 µM
MCF7 breast
  GI50: 2.83 µM
  TGI: 12.7 µM
HCT-15 colon
  GI50: 3.9 µM
  TGI: 22.6 µM
SK-MEL-2 melanoma
  GI50: 5.47 µM
  TGI: 22.8 µM

## COc1ccccc1/C=C\C(=O)c1ccccc1
HOP-62 NSCLC
  GI50: 17.3 µM
  TGI: 32.6 µM
T-47D breast
  GI50: 5.44 µM
  TGI: 20 µM
HL-60(TB) leukemia
  GI50: 5.06 µM
  TGI: 45.6 µM
CAKI-1 renal
  GI50: 3.68 µM
  TGI: 12.2 µM
IGROV1 ovarian
  GI50: 5.14 µM
  TGI: 18.1 µM
786-0 renal
  GI50: 15 µM
  TGI: 28.4 µM
EKVX NSCLC
  GI50: 3.82 µM
  TGI: 18.3 µM
MCF7 breast
  GI50: 1.92 µM
  TGI: 12.6 µM
HCT-15 colon
  GI50: 4.8 µM
  TGI: 19.3 µM
SK-MEL-2 melanoma
  GI50: 4.36 µM
  TGI: 14.6 µM

## O=C(O)C1C(C(=O)O)C2(Cl)C(Cl)=C(Cl)C1(Cl)C2(Cl)Cl.[Cd] (stereo not given)
HOP-62 NSCLC
  GI50: 22.7 µM
  TGI: 48.6 µM
T-47D breast
  GI50: 11.4 µM
  TGI: 28.1 µM
HL-60(TB) leukemia
  GI50: 28.4 µM
  TGI: 72.1 µM
CAKI-1 renal
  GI50: 17.8 µM
  TGI: 34.4 µM
IGROV1 ovarian
  GI50: 17.7 µM
  TGI: 34.2 µM
786-0 renal
  GI50: 8.59 µM
  TGI: 22 µM
EKVX NSCLC
  GI50: 19.9 µM
  TGI: 35.6 µM
MCF7 breast
  GI50: 17.3 µM
  TGI: 35.9 µM
HCT-15 colon
  GI50: 21.4 µM
  TGI: 46.6 µM
SK-MEL-2 melanoma
  GI50: 9.22 µM
  TGI: 26.8 µM

## COc1ccc(-c2nc3c(c(=O)n2C(C)=O)C(c2ccc(Cl)cc2)c2sc4c(Cl)cccc4c2O3)cc1 (stereo not given)
HOP-62 NSCLC
  GI50: 0.275 µM
  TGI: 1.96 µM
T-47D breast
  GI50: 0.326 µM
  TGI: 2.2 µM
HL-60(TB) leukemia
  GI50: 0.3 µM
  TGI: 0.982 µM
CAKI-1 renal
  GI50: 0.49 µM
  TGI: 4.16 µM
IGROV1 ovarian
  GI50: 0.512 µM
  TGI: 3.12 µM
786-0 renal
  GI50: 0.43 µM
  TGI: 1.63 µM
EKVX NSCLC
  GI50: 0.71 µM
  TGI: 4.74 µM
MCF7 breast
  GI50: 0.151 µM
  TGI: 1.37 µM
HCT-15 colon
  GI50: 0.301 µM
  TGI: 1.66 µM
SK-MEL-2 melanoma
  GI50: 0.374 µM
  TGI: 1.69 µM

## O=C(Nc1ccc(Cl)cc1)Nc1ccccc1CNc1nc(Nc2ccc(OCCN3CCCC3)cc2)ncc1Cl
HOP-62 NSCLC
  GI50: 1.28 µM
  TGI: 3.88 µM
T-47D breast
  GI50: 6.47 µM
  TGI: 18 µM
HL-60(TB) leukemia
  GI50: 1.05 µM
  TGI: 2.19 µM
CAKI-1 renal
  GI50: 7.44 µM
  TGI: 14 µM
IGROV1 ovarian
  GI50: 1.62 µM
  TGI: 5.72 µM
786-0 renal
  GI50: 0.871 µM
  TGI: 1.61 µM
EKVX NSCLC
  GI50: 1.55 µM
  TGI: 6.63 µM
MCF7 breast
  GI50: 0.895 µM
  TGI: 1.84 µM
HCT-15 colon
  GI50: 1.01 µM
  TGI: 2.6 µM
SK-MEL-2 melanoma
  GI50: 8.99 µM
  TGI: 17.4 µM

## CC12OC(C(=O)C13CCC3)C1C(=O)c3ccccc3C(=O)C12 (stereo not given)
HOP-62 NSCLC
  GI50: > 100 µM
  TGI: > 100 µM
T-47D breast
  GI50: 44 µM
  TGI: > 100 µM
HL-60(TB) leukemia
  GI50: 52 µM
  TGI: > 100 µM
CAKI-1 renal
  GI50: 32.7 µM
  TGI: > 100 µM
IGROV1 ovarian
  GI50: > 100 µM
  TGI: > 100 µM
786-0 renal
  GI50: > 100 µM
  TGI: > 100 µM
EKVX NSCLC
  GI50: > 100 µM
  TGI: > 100 µM
MCF7 breast
  GI50: > 100 µM
  TGI: > 100 µM
HCT-15 colon
  GI50: > 100 µM
  TGI: > 100 µM
SK-MEL-2 melanoma
  GI50: > 100 µM
  TGI: > 100 µM

## CC(=O)Oc1ccc(C2(c3ccc(OC(C)=O)cc3)C(=O)Nc3ccccc32)cc1
HOP-62 NSCLC
  GI50: 34.7 µM and 35.1 µM
  TGI: > 100 µM
T-47D breast
  GI50: 0.031 µM and 0.0327 µM
  TGI: 0.112 µM and 0.129 µM
HL-60(TB) leukemia
  GI50: 15.1 µM and 30.9 µM
  TGI: > 71.9 µM
CAKI-1 renal
  GI50: 31.4 µM and 31.8 µM
  TGI: > 100 µM
IGROV1 ovarian
  GI50: 11.2 µM and 16.8 µM
  TGI: 81.3 µM and > 100 µM
786-0 renal
  GI50: 42.6 µM and 46.6 µM
  TGI: > 100 µM
EKVX NSCLC
  GI50: 8.49 µM and 22.4 µM
  TGI: > 100 µM
MCF7 breast
  GI50: 0.229 µM and 0.278 µM
  TGI: > 49.3 µM
HCT-15 colon
  GI50: 20.5 µM and 25.8 µM
  TGI: > 100 µM
SK-MEL-2 melanoma
  GI50: 30.4 µM and 52.8 µM
  TGI: 96.9 µM and > 100 µM

## CN(C)CCCC1(c2ccc(F)cc2)OCc2cc(-c3cncc4ccccc34)ccc21 (stereo not given)
HOP-62 NSCLC
  GI50: 3.8 µM
  TGI: 16.8 µM
T-47D breast
  GI50: 2.43 µM
  TGI: 7.28 µM
HL-60(TB) leukemia
  GI50: 1.81 µM
  TGI: 4.15 µM
CAKI-1 renal
  GI50: 2 µM
  TGI: 5.88 µM
IGROV1 ovarian
  GI50: 2.88 µM
  TGI: 12.2 µM
786-0 renal
  GI50: 2.71 µM
  TGI: 9.72 µM
EKVX NSCLC
  GI50: 8.48 µM
  TGI: 21.2 µM
MCF7 breast
  GI50: 1.89 µM
  TGI: 4.57 µM
HCT-15 colon
  GI50: 3.32 µM
  TGI: 12.6 µM
SK-MEL-2 melanoma
  GI50: 2.14 µM
  TGI: 4.74 µM

## CC(C)(C)[Si](C)(C)OCC1OC(n2cnc3c(N)ncnc32)C(O)C1O (stereo not given)
HOP-62 NSCLC
  TGI: > 100 µM
T-47D breast
  TGI: > 100 µM
HL-60(TB) leukemia
  TGI: > 100 µM
CAKI-1 renal
  TGI: > 100 µM
IGROV1 ovarian
  TGI: > 100 µM
786-0 renal
  TGI: > 100 µM
EKVX NSCLC
  TGI: > 100 µM
MCF7 breast
  TGI: > 100 µM
HCT-15 colon
  TGI: > 100 µM
SK-MEL-2 melanoma
  TGI: > 100 µM

## Fc1c[c-]c(-c2ccccn2)c(F)c1.[CH3-].[Pt+2].c1ccc(P(C[PH+](c2ccccc2)c2ccccc2)c2ccccc2)cc1
HOP-62 NSCLC
  GI50: 0.932 µM
  TGI: 3.71 µM
T-47D breast
  GI50: 0.474 µM
  TGI: 3.27 µM
HL-60(TB) leukemia
  GI50: 0.38 µM
  TGI: 1.56 µM
CAKI-1 renal
  GI50: 0.869 µM
  TGI: 1.96 µM
IGROV1 ovarian
  GI50: 0.47 µM
  TGI: 1.86 µM
786-0 renal
  GI50: 0.75 µM
  TGI: 1.65 µM
EKVX NSCLC
  GI50: 0.495 µM
  TGI: 1.96 µM
MCF7 breast
  GI50: 0.577 µM
  TGI: 2.98 µM
HCT-15 colon
  GI50: 0.975 µM
  TGI: 2.25 µM
SK-MEL-2 melanoma
  GI50: 0.695 µM
  TGI: 1.89 µM
